Laboratory results taken from patent US8952024B2, “Herbicidal pyrimidone derivatives” (E I du Pont de Nemours and Company, priority 2009, dated 2015).

Key:
Assay type in all cases: in vivo
[1] = system: bermudagrass (Cynodon dactylon); assay: Test B pre-/postemergence plant response
In short: (§1)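 Seeds were sown in loam soil/sand blend and treated preemergence with compound in non-phytotoxic solvent mixture containing surfactant; postemergence sprays, same formulation, went onto plants 2 to 18 cm (1- to 4-leaf stage) in peat-based planting medium. Greenhouse 13 to 15 days, then visual rating versus untreated controls, 0 (no effect) to 100 (complete control).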

[2] = system: downy bromegrass (Bromus tectorum); assay: Test B pre-/postemergence plant response
In short: as §1

[3] = system: green foxtail (Setaria viridis); assay: Test B pre-/postemergence plant response
In short: as §1

[4] = system: pigweed (Amaranthus retroflexus); assay: Test B pre-/postemergence plant response
In short: as §1

[5] = system: ragweed (common ragweed, Ambrosia elatior); assay: Test B pre-/postemergence plant response
In short: as §1

[6] = system: blackgrass (Alopecurus myosuroides); assay: Test B pre-/postemergence plant response
In short: as §1

[7] = system: wheat (Triticum aestivum); assay: Test B pre-/postemergence plant response
In short: as §1

[8] = system: morningglory (Ipomoea coccinea); assay: Test B pre-/postemergence plant response
In short: as §1

[9] = system: goosegrass (Eleusine indica); assay: Test B pre-/postemergence plant response
In short: as §1

soybean (Glycine max) = assay: Test B pre-/postemergence plant response
In short: as §1

[10] = system: velvetleaf (Abutilon theophrasti); assay: Test B pre-/postemergence plant response
In short: as §1

[11] = system: Italian ryegrass (Lolium multiflorum); assay: Test B pre-/postemergence plant response
In short: as §1

[12] = system: johnsongrass (Sorghum halepense); assay: Test B pre-/postemergence plant response
In short: as §1

corn (Zea mays) = assay: Test B pre-/postemergence plant response
In short: as §1

[13] = system: giant foxtail (Setaria faberii); assay: Test B pre-/postemergence plant response
In short: as §1

[14] = system: canarygrass (Phalaris minor); assay: Test B postemergence plant response
In short: (§2)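 Plants grown in peat/vermiculite medium were sprayed postemergence at 2–18 cm height (1- to 4-leaf stage). After 13–15 days in the greenhouse, response was rated visually against untreated controls on a 0–100 scale (0 no effect, 100 complete control).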

[15] = system: chickweed (Stellaria media); assay: Test B postemergence plant response
In short: as §2

[16] = system: winter barley (Hordeum vulgare); assay: Test B postemergence plant response
In short: as §2

[17] = 31 g ai/ha, postemergence, scale 0 to 100, 0 is no effect, 100 is complete control
[18] = 62 g ai/ha, postemergence, 0 is no effect, 100 is complete control, 13 to 15 days
[19] = Postemergence, 125 g ai/ha, visual rating after 13 to 15 days, scale 0 (no effect) to 100 (complete control)
[20] = Postemergence, 250 g ai/ha, scale 0 to 100 (0 no effect, 100 complete control)

## O=C1CCCC(O)=C1C(=O)c1cnc(-c2ccc(Br)cc2)n(-c2ccccc2)c1=O [Compound 70]
[1]; [17]
  Plant response rating, Bermudagrass: 75
[1]; [18]
  Bermudagrass plant response rating (0 to 100 scale): 85
[1]; [19]
  Plant response rating, Bermudagrass: 95
[1]; [20]
  Plant response rating, Bermudagrass: 98
[2]; [17]
  Plant response rating, Bromegrass, Downy: 10
[2]; [18]
  Bromegrass, Downy plant response rating (0 to 100 scale): 50
[2]; [19]
  Plant response rating, Bromegrass, Downy: 70
[2]; [20]
  Plant response rating, Bromegrass, Downy: 70
[3]; [17]
  Plant response rating, Foxtail, Green: 80
[3]; [18]
  Foxtail, Green plant response rating (0 to 100 scale): 85
[3]; [19]
  Plant response rating, Foxtail, Green: 98
[3]; [20]
  Plant response rating, Foxtail, Green: 98
[4]; [17]
  Plant response rating, Pigweed: 85
[4]; [18]
  Pigweed plant response rating (0 to 100 scale): 98
[4]; [19]
  Plant response rating, Pigweed: 98
[4]; [20]
  Plant response rating, Pigweed: 100
[5]; [17]
  Plant response rating, Ragweed: 60
[5]; [18]
  Ragweed plant response rating (0 to 100 scale): 70
[5]; [19]
  Plant response rating, Ragweed: 75
[5]; [20]
  Plant response rating, Ragweed: 80
[6]; [17]
  Plant response rating, Blackgrass: 30
[6]; [18]
  Blackgrass plant response rating (0 to 100 scale): 35
[6]; [19]
  Plant response rating, Blackgrass: 35
[6]; [20]
  Plant response rating, Blackgrass: 50
[7]; [17]
  Plant response rating, Wheat: 5
[7]; [18]
  Wheat plant response rating (0 to 100 scale): 20
[7]; [19]
  Plant response rating, Wheat: 35
[7]; [20]
  Plant response rating, Wheat: 35
[8]; [17]
  Plant response rating, Morningglory: 98
[8]; [18]
  Morningglory plant response rating (0 to 100 scale): 100
[8]; [19]
  Plant response rating, Morningglory: 100
[8]; [20]
  Plant response rating, Morningglory: 100
[9]; [17]
  Plant response rating, Goosegrass: 75
[9]; [18]
  Goosegrass plant response rating (0 to 100 scale): 85
[9]; [19]
  Plant response rating, Goosegrass: 85
[9]; [20]
  Plant response rating, Goosegrass: 95
Soybean (Glycine max); [17]
  Plant response rating, Soybean: 75
Soybean (Glycine max); [18]
  Soybean plant response rating (0 to 100 scale): 75
Soybean (Glycine max); [19]
  Plant response rating, Soybean: 95
Soybean (Glycine max); [20]
  Plant response rating, Soybean: 98
[10]; [17]
  Plant response rating, Velvetleaf: 75
[10]; [18]
  Velvetleaf plant response rating (0 to 100 scale): 80
[10]; [19]
  Plant response rating, Velvetleaf: 100
[10]; [20]
  Plant response rating, Velvetleaf: 100
[11]; [17]
  Plant response rating, Ryegrass, Italian: 10
[11]; [18]
  Ryegrass, Italian plant response rating (0 to 100 scale): 10
[11]; [19]
  Plant response rating, Ryegrass, Italian: 50
[11]; [20]
  Plant response rating, Ryegrass, Italian: 70
[12]; [17]
  Plant response rating, Johnsongrass: 65
[12]; [18]
  Johnsongrass plant response rating (0 to 100 scale): 70
[12]; [19]
  Plant response rating, Johnsongrass: 80
[12]; [20]
  Plant response rating, Johnsongrass: 98
Corn (Zea mays); [17]
  Plant response rating, Corn: 15
Corn (Zea mays); [18]
  Corn plant response rating (0 to 100 scale): 35
Corn (Zea mays); [19]
  Plant response rating, Corn: 60
Corn (Zea mays); [20]
  Plant response rating, Corn: 75
[13]; [17]
  Plant response rating, Foxtail, Giant: 75
[13]; [18]
  Foxtail, Giant plant response rating (0 to 100 scale): 85
[13]; [19]
  Plant response rating, Foxtail, Giant: 95
[13]; [20]
  Plant response rating, Foxtail, Giant: 98
[14]; [17]
  Plant response rating, Canarygrass: 50
[14]; [18]
  Canarygrass plant response rating (0 to 100 scale): 80
[14]; [19]
  Plant response rating, Canarygrass: 85
[14]; [20]
  Plant response rating, Canarygrass: 98
[15]; [17]
  Plant response rating, Chickweed: 80
[15]; [18]
  Chickweed plant response rating (0 to 100 scale): 90
[15]; [19]
  Plant response rating, Chickweed: 98
[15]; [20]
  Plant response rating, Chickweed: 100
[16]; [17]
  Plant response rating, Barley: 10
[16]; [18]
  Barley plant response rating (0 to 100 scale): 30
[16]; [19]
  Plant response rating, Barley: 90
[16]; [20]
  Plant response rating, Barley: 90
